# Test system: 743489-274-T-PDC complex spheroid growth
# Experiment: Anticancer human tumor 743489-274-T-PDC patient-derived renal cell carcinoma cell line growth inhibition [AhR]
# Details: for IC50: curve of first compound; for viability, T/C: stronger effect = lower value
# Outline: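 Complex tumor spheroids co-cultured with HUVEC and human MSC stroma; AhR antagonists tested in combination with standard-of-care and investigational agents. Top concentration at or near clinical Cmax (else 10 microM), half-log dilutions; growth expressed as percent test/control.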
# [1] = second compound 0.1 µM, first compound 0.0316 µM
# [2] = second compound 0.1 µM, first compound 0.1 µM
# [3] = second compound 0.1 µM, first compound 0.316 µM
# [4] = second compound 0.1 µM, first compound 1 µM
# [5] = second compound 0.1 µM, first compound 3.16 µM
# [6] = second compound 0.1 µM, first compound 10 µM
# [7] = second compound 0.316 µM, first compound 0.0316 µM
# [8] = second compound 0.316 µM, first compound 0.1 µM
# [9] = second compound 0.316 µM, first compound 0.316 µM
# [10] = second compound 0.316 µM, first compound 1 µM
# [11] = second compound 0.316 µM, first compound 3.16 µM
# [12] = second compound 0.316 µM, first compound 10 µM
# [13] = second compound 1 µM, first compound 0.0316 µM
# [14] = second compound 1 µM, first compound 0.1 µM
# [15] = second compound 1 µM, first compound 0.316 µM
# [16] = second compound 1 µM, first compound 1 µM
# [17] = second compound 1 µM, first compound 3.16 µM
# [18] = second compound 1 µM, first compound 10 µM
# [19] = second compound 3.16 µM, first compound 0.0316 µM
# [20] = second compound 3.16 µM, first compound 0.1 µM
# [21] = second compound 3.16 µM, first compound 0.316 µM
# [22] = second compound 3.16 µM, first compound 1 µM
# [23] = second compound 3.16 µM, first compound 3.16 µM
# [24] = second compound 3.16 µM, first compound 10 µM
# [25] = second compound 10 µM, first compound 0.0316 µM
# [26] = second compound 10 µM, first compound 0.1 µM
# [27] = second compound 10 µM, first compound 0.316 µM
# [28] = second compound 10 µM, first compound 1 µM
# [29] = second compound 10 µM, first compound 3.16 µM
# [30] = second compound 10 µM, first compound 10 µM
# [31] = second compound 0.1 µM, first compound 0.00949 µM
# [32] = second compound 0.1 µM, first compound 0.03 µM
# [33] = second compound 0.1 µM, first compound 0.0949 µM
# [34] = second compound 0.1 µM, first compound 0.3 µM
# [35] = second compound 0.316 µM, first compound 0.00949 µM
# [36] = second compound 0.316 µM, first compound 0.03 µM
# [37] = second compound 0.316 µM, first compound 0.0949 µM
# [38] = second compound 0.316 µM, first compound 0.3 µM
# [39] = second compound 1 µM, first compound 0.00949 µM
# [40] = second compound 1 µM, first compound 0.03 µM
# [41] = second compound 1 µM, first compound 0.0949 µM
# [42] = second compound 1 µM, first compound 0.3 µM
# [43] = second compound 3.16 µM, first compound 0.00949 µM
# [44] = second compound 3.16 µM, first compound 0.03 µM
# [45] = second compound 3.16 µM, first compound 0.0949 µM
# [46] = second compound 3.16 µM, first compound 0.3 µM
# [47] = second compound 10 µM, first compound 0.00949 µM
# [48] = second compound 10 µM, first compound 0.03 µM
# [49] = second compound 10 µM, first compound 0.0949 µM
# [50] = second compound 10 µM, first compound 0.3 µM
# 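Note: spheroids exposed to agents for 7 days before readout.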
# 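Throughout, for viability, T/C: 100% = DMSO vehicle control wells.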
compound,measurement,setting,value
CC1(C)CCC(CN2CCN(c3ccc(C(=O)NS(=O)(=O)c4ccc(NCC5CCOCC5)c([N+](=O)[O-])c4)c(Oc4cnc5[nH]ccc5c4)c3)CC2)=C(c2ccc(Cl)cc2)C1 + Cc1ccccc1N=Nc1ccc(NC(=O)c2ccnn2C)c(C)c1,IC50,second compound 0.1 µM,> 10 µM
same,IC50,second compound 0.316 µM,> 10 µM
same,IC50,second compound 1 µM,> 10 µM
same,IC50,second compound 3.16 µM,> 10 µM
same,IC50,second compound 10 µM,> 10 µM
same,"viability, T/C",[1],91.9%
same,"viability, T/C",[2],92.9%
same,"viability, T/C",[3],93.9%
same,"viability, T/C",[4],94.7%
same,"viability, T/C",[5],96.1%
same,"viability, T/C",[6],94.3%
same,"viability, T/C",[7],95.7%
same,"viability, T/C",[8],94.9%
same,"viability, T/C",[9],97.5%
same,"viability, T/C",[10],81.8%
same,"viability, T/C",[11],87.5%
same,"viability, T/C",[12],81.6%
same,"viability, T/C",[13],89.8%
same,"viability, T/C",[14],88.4%
same,"viability, T/C",[15],99.6%
same,"viability, T/C",[16],99.2%
same,"viability, T/C",[17],89.1%
same,"viability, T/C",[18],78.3%
same,"viability, T/C",[19],90.1%
same,"viability, T/C",[20],91%
same,"viability, T/C",[21],93.8%
same,"viability, T/C",[22],85.6%
same,"viability, T/C",[23],75.5%
same,"viability, T/C",[24],81.8%
same,"viability, T/C",[25],84.8%
same,"viability, T/C",[26],85.2%
same,"viability, T/C",[27],90.1%
same,"viability, T/C",[28],80%
same,"viability, T/C",[29],104%
same,"viability, T/C",[30],82.1%
CCN(c1cc(-c2ccc(CN3CCOCC3)cc2)cc(C(=O)NCc2c(C)cc(C)[nH]c2=O)c1C)C1CCOCC1 + Cc1ccccc1N=Nc1ccc(NC(=O)c2ccnn2C)c(C)c1,IC50,second compound 0.1 µM,> 3 µM
same,IC50,second compound 0.316 µM,> 3 µM
same,IC50,second compound 1 µM,> 3 µM
same,IC50,second compound 3.16 µM,> 3 µM
same,IC50,second compound 10 µM,> 3 µM
same,"viability, T/C",[31],91.2%
same,"viability, T/C",[32],88.2%
same,"viability, T/C",[33],93.7%
same,"viability, T/C",[34],84.5%
same,"viability, T/C","second compound 0.1 µM, first compound 0.949 µM",90.8%
same,"viability, T/C","second compound 0.1 µM, first compound 3 µM",90.4%
same,"viability, T/C",[35],82.1%
same,"viability, T/C",[36],93.3%
same,"viability, T/C",[37],86.2%
same,"viability, T/C",[38],77.3%
same,"viability, T/C","second compound 0.316 µM, first compound 0.949 µM",86.6%
same,"viability, T/C","second compound 0.316 µM, first compound 3 µM",84.2%
same,"viability, T/C",[39],88.6%
same,"viability, T/C",[40],83.2%
same,"viability, T/C",[41],89.5%
same,"viability, T/C",[42],94.3%
same,"viability, T/C","second compound 1 µM, first compound 0.949 µM",81%
same,"viability, T/C","second compound 1 µM, first compound 3 µM",99.6%
same,"viability, T/C",[43],76%
same,"viability, T/C",[44],77%
same,"viability, T/C",[45],77.2%
same,"viability, T/C",[46],74.5%
same,"viability, T/C","second compound 3.16 µM, first compound 0.949 µM",81%
same,"viability, T/C","second compound 3.16 µM, first compound 3 µM",82%
same,"viability, T/C",[47],72.2%
same,"viability, T/C",[48],84.3%
same,"viability, T/C",[49],85.9%
same,"viability, T/C",[50],71.7%
same,"viability, T/C","second compound 10 µM, first compound 0.949 µM",77.9%
same,"viability, T/C","second compound 10 µM, first compound 3 µM",73.1%
Cn1ncnc1C1c2n[nH]c(=O)c3cc(F)cc(c23)NC1c1ccc(F)cc1 (stereo not given) + Cc1ccccc1N=Nc1ccc(NC(=O)c2ccnn2C)c(C)c1,IC50,second compound 0.1 µM,> 0.1 µM
same,IC50,second compound 0.316 µM,> 0.1 µM
same,IC50,second compound 1 µM,> 0.1 µM
same,IC50,second compound 3.16 µM,> 0.1 µM
same,IC50,second compound 10 µM,> 0.1 µM
same,"viability, T/C","second compound 0.1 µM, first compound 0.000316 µM",97.3%
same,"viability, T/C","second compound 0.1 µM, first compound 0.001 µM",106%
same,"viability, T/C","second compound 0.1 µM, first compound 0.00316 µM",101%
same,"viability, T/C","second compound 0.1 µM, first compound 0.01 µM",101%
same,"viability, T/C",[1],103%
same,"viability, T/C",[2],90.2%
same,"viability, T/C","second compound 0.316 µM, first compound 0.000316 µM",98.2%
same,"viability, T/C","second compound 0.316 µM, first compound 0.001 µM",107%
same,"viability, T/C","second compound 0.316 µM, first compound 0.00316 µM",89%
same,"viability, T/C","second compound 0.316 µM, first compound 0.01 µM",98.9%
same,"viability, T/C",[7],97.8%
same,"viability, T/C",[8],88.8%
same,"viability, T/C","second compound 1 µM, first compound 0.000316 µM",105%
same,"viability, T/C","second compound 1 µM, first compound 0.001 µM",92.1%
same,"viability, T/C","second compound 1 µM, first compound 0.00316 µM",100%
same,"viability, T/C","second compound 1 µM, first compound 0.01 µM",96.7%
same,"viability, T/C",[13],106%
same,"viability, T/C",[14],92.5%
same,"viability, T/C","second compound 3.16 µM, first compound 0.000316 µM",93.3%
same,"viability, T/C","second compound 3.16 µM, first compound 0.001 µM",106%
same,"viability, T/C","second compound 3.16 µM, first compound 0.00316 µM",97.7%
same,"viability, T/C","second compound 3.16 µM, first compound 0.01 µM",91%
same,"viability, T/C",[19],94.1%
same,"viability, T/C",[20],102%
same,"viability, T/C","second compound 10 µM, first compound 0.000316 µM",99.8%
same,"viability, T/C","second compound 10 µM, first compound 0.001 µM",101%
same,"viability, T/C","second compound 10 µM, first compound 0.00316 µM",103%
same,"viability, T/C","second compound 10 µM, first compound 0.01 µM",92.2%
same,"viability, T/C",[25],89.4%
same,"viability, T/C",[26],103%
NS(=O)(=O)OCC1CC(n2ccc3c(NC4CCc5ccccc54)ncnc32)CC1O (stereo not given) + Cc1ccccc1N=Nc1ccc(NC(=O)c2ccnn2C)c(C)c1,IC50,second compound 0.1 µM,> 10 µM
same,IC50,second compound 0.316 µM,> 10 µM
same,IC50,second compound 1 µM,> 10 µM
same,IC50,second compound 3.16 µM,> 10 µM
same,IC50,second compound 10 µM,> 10 µM
same,"viability, T/C",[1],103%
same,"viability, T/C",[2],110%
same,"viability, T/C",[3],116%
same,"viability, T/C",[4],146%
same,"viability, T/C",[5],162%
same,"viability, T/C",[6],140%
same,"viability, T/C",[7],109%
same,"viability, T/C",[8],95.8%
same,"viability, T/C",[9],112%
same,"viability, T/C",[10],144%
same,"viability, T/C",[11],137%
same,"viability, T/C",[12],155%
same,"viability, T/C",[13],98.1%
same,"viability, T/C",[14],104%
same,"viability, T/C",[15],102%
same,"viability, T/C",[16],144%
same,"viability, T/C",[17],146%
same,"viability, T/C",[18],141%
same,"viability, T/C",[19],105%
same,"viability, T/C",[20],90.8%
same,"viability, T/C",[21],112%
same,"viability, T/C",[22],128%
same,"viability, T/C",[23],152%
same,"viability, T/C",[24],140%
same,"viability, T/C",[25],96.7%
same,"viability, T/C",[26],103%
same,"viability, T/C",[27],116%
same,"viability, T/C",[28],130%
same,"viability, T/C",[29],121%
same,"viability, T/C",[30],115%
Nc1ncn(C2CC(O)C(CO)S2)c(=O)n1 (stereo not given) + Cc1ccccc1N=Nc1ccc(NC(=O)c2ccnn2C)c(C)c1,IC50,second compound 0.1 µM,> 0.3 µM
same,IC50,second compound 0.316 µM,> 0.3 µM
same,IC50,second compound 1 µM,> 0.3 µM
same,IC50,second compound 3.16 µM,> 0.3 µM
same,IC50,second compound 10 µM,> 0.3 µM
same,"viability, T/C","second compound 0.1 µM, first compound 0.000949 µM",102%
same,"viability, T/C","second compound 0.1 µM, first compound 0.003 µM",87.6%
same,"viability, T/C",[31],82.9%
same,"viability, T/C",[32],71.4%
same,"viability, T/C",[33],85.5%
same,"viability, T/C",[34],75.5%
same,"viability, T/C","second compound 0.316 µM, first compound 0.000949 µM",85.5%
same,"viability, T/C","second compound 0.316 µM, first compound 0.003 µM",81.7%
same,"viability, T/C",[35],80.4%
same,"viability, T/C",[36],81.7%
same,"viability, T/C",[37],87.2%
same,"viability, T/C",[38],74.7%
same,"viability, T/C","second compound 1 µM, first compound 0.000949 µM",85.7%
same,"viability, T/C","second compound 1 µM, first compound 0.003 µM",84.4%
same,"viability, T/C",[39],86.3%
same,"viability, T/C",[40],78.3%
same,"viability, T/C",[41],80.4%
same,"viability, T/C",[42],85.4%
same,"viability, T/C","second compound 3.16 µM, first compound 0.000949 µM",83.4%
same,"viability, T/C","second compound 3.16 µM, first compound 0.003 µM",83.2%
same,"viability, T/C",[43],83.1%
same,"viability, T/C",[44],87%
same,"viability, T/C",[45],82.4%
same,"viability, T/C",[46],79.3%
same,"viability, T/C","second compound 10 µM, first compound 0.000949 µM",76%
same,"viability, T/C","second compound 10 µM, first compound 0.003 µM",69.9%
same,"viability, T/C",[47],92.1%
same,"viability, T/C",[48],81.2%
same,"viability, T/C",[49],83.3%
same,"viability, T/C",[50],76.5%
